What was measured:
[1] = target: T1, LPL (lipoprotein lipase) (Mus musculus, UniProt P11152); assay: Confirmation test of LPL activation effect in mouse skeletal muscle cells (C2C12 cells); format: cell-based; conditions: 8 hours exposure, vs control group
T1 construct: endogenous in cells; host or cells: C2C12 cells, differentiated
T1 sequence (P11152 28-474): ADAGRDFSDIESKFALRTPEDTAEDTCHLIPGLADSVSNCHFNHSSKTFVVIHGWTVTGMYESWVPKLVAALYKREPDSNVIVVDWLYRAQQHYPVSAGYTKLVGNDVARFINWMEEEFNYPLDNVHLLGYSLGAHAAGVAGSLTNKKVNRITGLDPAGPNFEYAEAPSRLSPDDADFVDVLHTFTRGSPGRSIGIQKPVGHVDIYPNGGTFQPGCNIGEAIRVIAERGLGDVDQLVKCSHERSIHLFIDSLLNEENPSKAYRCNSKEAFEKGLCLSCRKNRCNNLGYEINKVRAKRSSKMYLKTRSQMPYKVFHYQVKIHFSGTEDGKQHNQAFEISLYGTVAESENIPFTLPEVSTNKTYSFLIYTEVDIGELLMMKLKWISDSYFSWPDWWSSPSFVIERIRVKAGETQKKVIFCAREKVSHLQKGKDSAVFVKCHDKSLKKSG
Protocol: Human skeletal muscle cells (human skeletal muscle myoblasts) or mouse skeletal muscle cells (C2C12 cells) that were seeded onto plates, cultured, and differentiated were exposed to a 0.3% dimethyl sulfoxide-containing culture medium in which the compound of the present invention was dissolved (concentration: 10 μM or 30 μM). The medium was removed 8 hours after exposure, 10 mM of Tris-HCl buffer (150 mM NaCl, 10 μ/mL; containing heparin sodium) was added to the cells, and the cells were incubated at 37° C. in the presence of 5% CO2 for 10 minutes. LPL activity in the supernatant was measured using an LPL activity assay kit (made by Roar Biomedical Inc.). LPL activity was evaluated based on the increase in fluorescence intensity 10 to 70 minutes after mixing the supernatant with the LPL substrate. The mean value of the increase in fluorescence intensity of the cells exposed to a 0.3% dimethyl sulfoxide-containing culture medium […] was used as mean value of the control group. Note that the compounds of Examples 18, 19, 32, 45 and 57 were tested using human skeletal muscle cells, and other compounds were tested using mouse skeletal muscle cells. The rate of increase (%) was calculated from the measured values of LPL activity in the control group and the experimental group, according to the following formula. Rate of increase in LPL activity (%)=[(mean value of the experimental group)−(mean value of the control group)]/(mean value of the control group)×100

| Compound | Rate of increase in LPL activity ([1]; amount of addition 10 μM) [%] | Rate of increase in LPL activity ([1]; amount of addition 30 μM) [%] | melting point [°C] |
| --- | --- | --- | --- |
| COc1cc(OCc2ccc(Cl)cc2)ccc1-c1c[nH]c(-c2ccccc2)n1.Cl [Example 10] | 46 | 275 | 244 to 246 |
| COc1cc(OCc2ccc(Br)cc2F)ccc1-c1c[nH]c(-c2ccccc2)n1.Cl [Example 11] | 96 | 231 | 239 to 240 |
| COc1cc(OCc2ccccc2)ccc1-c1c[nH]c(-c2ccc(C(F)(F)F)cc2)n1 [Example 13] | 46 | 234 | 231 to 232 |
| COc1cc(-c2c[nH]c(-c3cc(Cl)cc(Cl)c3)n2)ccc1OCc1ccccc1 [Example 15] | 79 | 97 | 250 to 251 |
| COc1cc(-c2c[nH]c(-c3ccc(C)c(F)c3)n2)ccc1OCc1ccccc1.Cl [Example 16] | 54 | 119 | 236 to 237 |
| COc1cc(OCc2ccc(C#N)cc2)ccc1-c1c[nH]c(-c2ccc(C(F)(F)F)cc2)n1 [Example 17] | 81 | 143 | 182 to 184 |
| COc1cc(OCc2ccccc2)ccc1-c1c[nH]c(-c2ccsc2)n1 [Example 24] | 59 | 77 | 188 to 192 |
| COc1cc(-c2c[nH]c(-c3ccoc3)n2)ccc1OCc1ccccc1 [Example 26] | 31 | 51 | 177 to 179 |
| COc1cc(-c2c[nH]c(-c3ccc(C(C)(C)C)cc3)n2)ccc1OCc1ccccc1 [Example 28] | 30 | 53 | 138 to 141 |
| COc1cc(OCc2ccccc2)ccc1-c1c[nH]c(C(C)C)n1 [Example 30] | 11 | 47 | 154 to 156 |
| COc1cc(-c2c[nH]c(-c3cccs3)n2)ccc1OCc1ccc(Cl)cc1 [Example 31] | 10 | 38 | 197 to 200 |
| COc1cc(-c2c[nH]c(-c3cc(Cl)cc(Cl)c3)n2)ccc1OCc1ccc(Cl)cc1 [Example 33] | 60 | 84 | 142 to 145 |
| COc1cc(-c2c[nH]c(-c3ccc(F)cc3)n2)ccc1OCc1ccccc1 [Example 36] | 6 | 113 | 214 to 216 |
| COC(=O)c1ccc(-c2nc(-c3ccc(OCc4ccccc4)c(OC)c3)c[nH]2)cc1.Cl [Example 38] | 35 | 100 | 222 to 227 |
| COc1cc(OCc2ccccc2)ccc1-c1c[nH]c(-c2ccc(F)cc2)n1.Cl [Example 42] | 47 | 131 | 217 to 220 |
| COc1cc(OCc2ccc(Cl)cc2)ccc1-c1c[nH]c(-c2ccc(F)cc2)n1 [Example 43] | 64 | 157 | 174 to 176 |
| COc1cc(-c2c[nH]c(-c3cccc(F)c3)n2)ccc1OCc1ccccc1.Cl [Example 46] | 49 | 88 | 212 to 215 |
| COc1cc(-c2c[nH]c(-c3ccc(F)c(F)c3)n2)ccc1OCc1ccccc1.Cl [Example 47] | 38 | 120 | 226 to 227 |
| COc1cc(-c2c[nH]c(-c3ccc(F)cc3)n2)ccc1OCc1ccc(Cl)cc1.Cl [Example 48] | 18 | 96 | 243 to 245 |
| COc1cc(-c2nc(-c3ccc(F)cc3)[nH]c2C)ccc1OCc1ccccc1 [Example 49] | 47 | 147 | 214 to 218 |
| COc1cc(-c2c[nH]c(-c3ccc(F)cc3)n2)ccc1OCc1ccccc1C#N [Example 50] | 20 | 70 | 204 to 206 |
| COc1cc(-c2c[nH]c(-c3cccc(C(F)(F)F)c3)n2)ccc1OCc1ccc(Br)cc1F [Example 51] | 16 | 115 | 173 to 174 |
| COc1cc(OCc2ccccc2)ccc1-c1c[nH]c(-c2cccc(F)c2)n1.Cl [Example 54] | 18 | 87 | 231 to 235 |
| COc1cc(-c2c[nH]c(-c3ccc(C(F)(F)F)cc3)n2)ccc1OCc1ccc(C#N)cc1 [Example 55] | 49 | 94 | 231 to 233 |
| COc1cc(-c2c[nH]c(-c3ccc(F)cc3)n2)ccc1OCc1ccc(C#N)cc1 [Example 56] | 38 | 62 | 224 to 226 |
| COc1cc(OCc2ccc(Br)cc2F)ccc1-c1c[nH]c(-c2cccc(C(F)(F)F)c2)n1.Cl [Example 58] | 45 | 150 | > 250 |
| COc1cc(-c2c[nH]c(-c3cccc(F)c3)n2)ccc1OCc1ccc(C#N)cc1 [Example 59] | 22 | 73 | 205 to 209 |
| COc1cc(-c2c[nH]c(-c3ccc(F)cc3)n2)ccc1OCc1cccc(C#N)c1.Cl [Example 61] | 53 | 92 | 242 to 244 |
| COc1cc(OCc2ccc(C#N)cc2)ccc1-c1c[nH]c(-c2ccsc2)n1 [Example 65] | 24 | 46 | 183 to 186 |
